Experimental findings from patent publication US8367702B2, “Quinolone derivative” (Astellas Pharma Inc., priority 2007, dated 2013) are described below.

Each structure is given as a SMILES string.

In general, melting point refers to the temperature of the solid-liquid transition.

Tested on in the first series: not given
Assay: not given
Settings: not given
Turning to `Cc1c(CCCCCOc2ccc(F)cc2F)[nH]c2ccc(F)cc2c1=O` [Ex 28], the melting point was 201 to 203 °C.
The same measure, in the same setting: the result for `Cc1c(COCCCCOc2cccc3c2OC(C)(C)C3)[nH]c2ccccc2c1=O` [Ex 52] reads 139 to 140 °C; that for `Cc1c(COCCCCOCCC2CC2)[nH]c2ccccc2c1=O` [Ex 53], 155 to 157 °C.
`Cc1c(COc2cccc(OCC3CCOCC3)n2)[nH]c2ccccc2c1=O` [Ex 143] registered a melting point of 221 to 223 °C.
Same read-out and setting: the result for `Cc1c(COc2cc(OCCC3(O)CCOCC3)ccn2)[nH]c2ccccc2c1=O` [Ex 179] reads 189 to 190 °C.
Same read-out and setting: the result for `CCCCCC(=O)N1CCN(Cc2[nH]c3ccccc3c(=O)c2C)CC1` [Ex 181] reads 171 to 173 °C; that for `Cc1c(CCc2cc(OCC3CCOCC3)ccn2)[nH]c2ccccc2c1=O` [Ex 184], 212 to 215 °C; that for `Cc1c(COc2cccc(N3CCC(OCCC(C)(C)O)CC3)c2)[nH]c2ccccc2c1=O` [Ex 194], 160 to 163 °C.
The same measure, in the same setting: in the case of `Cc1c(COCC(C)(C)COC(=O)N2CCOCC2)[nH]c2ccccc2c1=O` [Ex 204] it was 155 to 157 °C; in that of `Cc1c(COCCC2(O)CCCCC2)[nH]c2ccccc2c1=O` [Ex 205], 125 to 127 °C; in that of `Cc1c(CCC2CCN(C(=O)C3CC3)CC2)[nH]c2ccccc2c1=O` [Ex 209], 222 to 224 °C.
The compound `Cc1c(COC2CCOCC2)[nH]c2ccccc2c1=O` [Ex 212] registered a melting point of 194 to 196 °C.
On the same count and under the same terms, the result for `Cc1c(COc2ccc3c(c2)CCN(C(=O)CC(C)(C)O)C3)[nH]c2ccccc2c1=O` [Ex 213] reads 135 to 138 °C.
The same measure, in the same setting: in the case of `CCNC(=O)N[C@H]1CC[C@H](OCc2[nH]c3ccccc3c(=O)c2C)CC1` [Ex 224] it was > 270 °C (dec.); in that of `Cc1c(COc2ncc(C(=O)NC3CCCC3)cn2)[nH]c2ccccc2c1=O` [Ex 230], > 231 °C (dec.); in that of `Cc1c(CCC2CCN(C(=O)CC(C)(C)O)CC2)[nH]c2ccccc2c1=O` [Ex 271], 203 to 205 °C.
Same read-out and setting: in the case of `CCOC(=O)N1CCC(CCc2[nH]c3ccccc3c(=O)c2C)CC1` [Ex 276] it was 211 to 213 °C; in that of `CCS(=O)(=O)N1CCC(CCc2[nH]c3ccccc3c(=O)c2C)CC1` [Ex 279], 225 to 228 °C.
`Cc1cccc(CNC(=O)OCc2[nH]c3ccccc3c(=O)c2C)c1` [Ex 283]: the melting point lay in the range of 240 to 243 °C.
Same read-out and setting: in the case of `Cc1c(COc2cccc(OCC3CCOCC3)c2)[nH]c2ccccc2c1=O` [Example 2, 3-methyl-2-{[3-(tetrahydro-2H-pyran-4-ylmethoxy)phenoxy]methyl}quinolin-4(1H)-one] it was 200 to 202 °C; in that of `Cc1c(COc2ccc(CCC3(O)CCCC3)cc2)[nH]c2ccccc2c1=O` [Example 3, 2-({4-[2-(1-hydroxycyclopentyl)ethyl]phenoxy}methyl)-3-methylquinolin-4(1H)-one], 200 to 202 °C; in that of `CCOC(=O)N[C@H]1CC[C@H](OCc2[nH]c3ccccc3c(=O)c2C)CC1` [Example 5, ethyl {trans-4-[(3-methyl-4-oxo-1,4-dihydroquinolin-2-yl]methoxy]cyclohexyl}carbamate], 268 to 271 °C.
Same read-out and setting: the result for `CCS(=O)(=O)N[C@H]1CC[C@H](OCc2[nH]c3ccccc3c(=O)c2C)CC1` [Example 6, N-{trans-4-[(3-methyl-4-oxo-1,4-dihydroquinolin-2-yl)methoxy]cyclohexyl}ethanesulfonamide] reads 245 to 247 °C; that for `Cc1c(CO[C@H]2CC[C@H](N3CCCC3=O)CC2)[nH]c2ccccc2c1=O` [Example 7, 3-methyl-2-({[trans-4-(2-oxopyrrolidin-1-yl)cyclohexyl]oxy}methyl)quinolin-4(1H)-one], 216 to 217 °C.
The same measure, in the same setting: the result for `Cc1c(COc2cccc(N3CCOCC3=O)c2)[nH]c2ccccc2c1=O` [Example 9, 3-methyl-2-{[3-(3-oxomorpholin-4-yl)phenoxy]methyl}quinolin-4(1H)-one] reads 221 to 223 °C; that for `Cc1c(COc2cc(OCCC(C)(C)O)cc(N3CCOCC3)c2)[nH]c2ccccc2c1=O` [Example 10, 2-{[3-(3-hydroxy-3-methylbutoxy)-5-morpholin-4-ylphenoxy]methyl}-3-methylquinolin-4(1H)-one], 189 to 190 °C; that for `CCCCCCCS(=O)(=O)Cc1[nH]c2ccccc2c(=O)c1C` [Example 19, 2-[(heptylsulfonyl)methyl]-3-methylquinolin-4(1H)-one], > 310 °C (dec.).

In another series the test system is NADPH oxidase. Kind of series: Inhibitory activity on ROS production derived from NADPH oxidase (HUVECs, nitrotetrazolium blue). In kind it is cell-based, Human. Particulars: 1.0 μM test compound, 25 mM glucose, 200 μM NADPH, 2 hours. How it is done: Test 1: Inhibitory Activity on ROS Production Derived from NADPH Oxidase
This activity was measured by using Human Umbilical Vein Endothelial Cells (HUVECs). The test method is as follows.
3×10^4 cells/well (100 μL) of HUVECs were seeded into a 96-well plate coated with collagen. The culture medium was MCDB131 medium containing 10% fetal bovine serum, 2 mM glutamine, 100 U/mL penicillin, 100 U/mL streptomycin, and 10 ng/mL recombinant human basic-FGF. On the next day, the culture medium was removed by an aspirator, and 100 μL/well of phosphate buffered saline containing 25 mM glucose, 200 μM NADPH, 0.2% nitrotetrazolium blue, and test compounds followed by culturing at 37° C. Nitrotetrazolium blue reacts with intracellularly produced ROS and turns into a water-insoluble blue pigment. After 2 hours, the supernatant was discarded, and the wells were washed three times with phosphate buffered physiological saline. Then, 100 μL/well of 90% DMSO water containing 0.04M sodium hydroxide was added to each well to completely dissolve the pigment, and an absorbance at a wavelength of 715 nm was measured. By taking an absorbance with no addition of a test compound as A, an absorbance […], and an absorbance with addition of glucose, NADPH and a test compound as C, ROS production inhibitory rate was calculated according to the following equation. Inhibition rate (%)=[…]
Abbreviation “Ex” in the table represents Example Compound No. which will follow, and abbreviation “Inh” represents an ROS production inhibition rate. It was confirmed that the compounds of the formula (I) of the present invention have an excellent ROS production inhibitory activity.
Turning to `Cc1c(COCCCCOc2ccc(C#N)cc2)[nH]c2ccccc2c1=O` [Ex 49], the “Inh(%) ROS production inhibition rate” value was 90.8 ± 5.2%.
The same measure, in the same setting: the result for `COCCc1ccc(OCCCCOCc2[nH]c3ccccc3c(=O)c2C)cc1` [Ex 50] reads 80.5 ± 2.5%.
Still for that read-out and setting: in the case of `COC(C)(C)CCOCCCCOCc1[nH]c2ccccc2c(=O)c1C` [Ex 55] it was 57.3 ± 2.3%.
Still for that read-out and setting: the result for `CC(=O)N1CCC(COc2cccc(OCc3[nH]c4ccccc4c(=O)c3C)c2)CC1` [Ex 98] reads 101.5 ± 1.9%; that for `Cc1c(COc2cccc(OCCc3ccncc3)c2)[nH]c2ccccc2c1=O` [Ex 127], 85.3 ± 2.9%.
In the case of `CCCCCC(=O)N1CCC(OCc2[nH]c3ccc(F)cc3c(=O)c2C)CC1` [Ex 128], the “Inh(%) ROS production inhibition rate” value worked out at 77.7 ± 3.9%.
Regarding `Cc1c(COc2ccc3c(c2)N(C(=O)CC2CCOCC2)CCC3)[nH]c2ccc(F)cc2c1=O` [Ex 166], the “Inh(%) ROS production inhibition rate” value is 84.3 ± 2.4%.
Regarding `Cc1c(CN2CCc3cc(OCC4CCOCC4)ccc3C2)[nH]c2ccccc2c1=O` [Ex 180], the “Inh(%) ROS production inhibition rate” value stood at 69.5 ± 1.3%.
Still for that read-out and setting: in the case of `Cc1c(COc2cccc(N3CCC(O)CC3)c2)[nH]c2ccccc2c1=O` [Ex 198] it was 97.5 ± 6.1%.
The same measure, in the same setting: the result for `Cc1c(COc2cccc(N3CCC(C)(O)CC3)c2)[nH]c2ccccc2c1=O` [Ex 199] reads 93.1 ± 1.1%; that for `Cc1c(COCCN(C(=O)C2CCOCC2)C2CCCCC2)[nH]c2ccccc2c1=O` [Ex 228], 66.3 ± 2.1%; that for `CCOC(=O)N1CCC(CCc2[nH]c3ccccc3c(=O)c2C)CC1` [Ex 276], 118.2 ± 4.0%.
Still for that read-out and setting: the result for `CCS(=O)(=O)N1CCC(CCc2[nH]c3ccccc3c(=O)c2C)CC1` [Ex 279] reads 98.9 ± 1.0%.
`Cc1cccc(CNC(=O)OCc2[nH]c3ccccc3c(=O)c2C)c1` [Ex 283]: the “Inh(%) ROS production inhibition rate” value is 61.6 ± 1.7%.
The same measure, in the same setting: the result for `Cc1c(COC(=O)Nc2cccc(Cc3ccccc3)c2)[nH]c2ccccc2c1=O` [Ex 285] reads 67.3 ± 0.1%; that for `Cc1c(COC(=O)NCC2CCCCC2)[nH]c2ccccc2c1=O` [Ex 291], 118.8 ± 0.4%; that for `Cc1c(COc2cccc(OCC3CCOCC3)c2)[nH]c2ccccc2c1=O` [Example 2, 3-methyl-2-{[3-(tetrahydro-2H-pyran-4-ylmethoxy)phenoxy]methyl}quinolin-4(1H)-one], 91.9 ± 5.2%.
Same read-out and setting: in the case of `CCS(=O)(=O)N[C@H]1CC[C@H](OCc2[nH]c3ccccc3c(=O)c2C)CC1` [Example 6, N-{trans-4-[(3-methyl-4-oxo-1,4-dihydroquinolin-2-yl)methoxy]cyclohexyl}ethanesulfonamide] it was 79.9 ± 1.2%; in that of `Cc1c(COc2cccc(N3CCOCC3=O)c2)[nH]c2ccccc2c1=O` [Example 9, 3-methyl-2-{[3-(3-oxomorpholin-4-yl)phenoxy]methyl}quinolin-4(1H)-one], 88.7 ± 1.5%; in that of `CCCCCCCS(=O)(=O)Cc1[nH]c2ccccc2c(=O)c1C` [Example 19, 2-[(heptylsulfonyl)methyl]-3-methylquinolin-4(1H)-one], 99.1 ± 0.0%.
